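Five concentrations, 48 hours, 96-well plates. At the GI50, growth is halved.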 Activity calls are given as the source filed them. Cut-off read from the data, not from the text of the source: active = GI50 up to about 1.1 µM and inactive = higher.

The values below come from ChEMBL document CHEMBL1201862, “PubChem BioAssay data set” (2004).

What all share (assay): NCI anticancer screen, dose series, 48 h
Test [1] concerns SW-620.
The test system of test [2] is EKVX.
The test system of test [3] is SF-295.
In test [4] the test system is Malme-3M.
Test [5] has as its system SK-MEL-5.
Test [6] deals with RXF 393.
Test [7] deals with NCI-H460.
Test [8] concerns MOLT-4.
Test [9] deals with OVCAR-3.
In test [10] the test system is OVCAR-5.
Test [11] deals with 786-0.
The subject of test [12] is CCRF-CEM.
Test [13] deals with HCC 2998.
In test [14] the test system is SR.
Test [15] has as its system UO-31.
In test [16] the test system is A498.
The subject of test [17] is SNB-19.

In the case of `NCCNCCNCc1c2ccccc2c(CNCCNCCN)c2ccccc12`, the GI50 in [1] was 90.4 µM (inactive); in test [2], > 100 µM (inactive); in [3] it was 41.4 µM (inactive); in test [4] it was 84.9 µM (inactive); in [5] it was > 100 µM (inactive); in [6], 40.9 µM (inactive). Besides, the GI50 is 31.2 µM (inactive) in [7]; 36.5 µM (inactive) in test [8]; > 100 µM (inactive) in test [9]; > 100 µM (inactive) in [10]; 38.6 µM (inactive) in [11]; 78.5 µM (inactive) in test [12]. Besides, the results for the GI50 in test [13], in [14] and in test [15] were 54 µM (inactive), 31.3 µM (inactive) and > 100 µM (inactive), respectively.
Consider `O=C1OC2CCCC[C@@H]2C2C[C@]34CCCCC3[C@@H](C(=O)O4)C12` (some centres undefined), for which the GI50 in test [1], in test [16], in test [2], in test [3], in [4] and in [5] was > 100 µM (inactive) in each case. The GI50 in test [6], in [17], in test [7], in test [8], in test [9] and in [10] was > 100 µM (inactive) throughout. Besides, the GI50 in test [11], in [12], in test [13] and in test [15] was > 100 µM (inactive) throughout.
For the compound `CN(C)CCNC(=O)c1cccc2nc3ccc4ccccc4c3nc12`, the GI50 in [1] was 0.0181 µM (active); in [16] it was 0.0832 µM (active); in test [2], 0.126 µM (active); in [3], 0.0989 µM (active); in [5] it was 0.105 µM (active); in [6] it was 0.0583 µM (active). For the same compound, the GI50 was 0.132 µM (active) in [17]; 0.0266 µM (active) in [7]; 0.0324 µM (active) in [8]; 0.169 µM (active) in test [9]; 0.21 µM (active) in test [10]; 0.125 µM (active) in [11]. The values for the GI50 in test [12], in test [13] and in [15] were 0.0673 µM (active), 0.126 µM (active) and 0.0685 µM (active), respectively.
On to `CCCC(=O)c1ccc(=O)n(C)c1`, for which the GI50 in test [1], in test [2], in [3], in [4], in test [5] and in test [6] was > 100 µM (inactive) throughout. The GI50 in [17], in test [7], in test [8], in [9], in [10] and in test [11] was > 100 µM (inactive) throughout. For the same compound, the GI50 in [12], in [13], in test [14] and in test [15] was > 100 µM (inactive) throughout.
As for `O=C1c2ccccc2C2(Br)C(=O)c3ccccc3C12` (centres undefined), the GI50 in test [1], in test [2], in test [3], in test [4], in test [5] and in test [6] was > 100 µM (inactive) in each case. Besides, the GI50 in [7] was > 100 µM (inactive); in test [8], > 100 µM (inactive); in [9] it was > 100 µM (inactive); in [10], > 100 µM (inactive); in test [11] it was > 100 µM (inactive); in test [12], 42.4 µM (inactive). Besides, the GI50 in test [13] and in [15] was > 100 µM (inactive) in each case.
Regarding `O=C(c1ccc(Cl)cc1)N(C(=S)N1CCN(c2ccccc2)CC1)c1ccccc1`, the GI50 in test [1], in test [3], in [4], in test [5], in test [6] and in test [17] was > 100 µM (inactive) each time. Besides, the GI50 in [7], in test [8], in test [9], in test [10], in test [11] and in test [12] was > 100 µM (inactive) in each case. For the same compound, the GI50 in test [14] and in [15] was > 100 µM (inactive) in each case.
Turning to `COc1cc(C(=O)C/C(CCC(=O)Nc2ccccc2[N+](=O)[O-])=N\NC(=O)CC#N)ccc1O`, the GI50 in test [1] was > 100 µM (inactive); in [16], 40.7 µM (inactive); in [2] it was > 100 µM (inactive); in test [3], > 100 µM (inactive); in test [4] it was > 100 µM (inactive); in test [5], > 100 µM (inactive). The GI50 in test [6], in [17], in test [7], in test [8], in [9] and in test [10] was > 100 µM (inactive) each time. For the same compound, the GI50 in test [11], in [12], in [13] and in test [15] was > 100 µM (inactive) in each case.
`CSC1(C)CC2C(CC1N1CCCCC1)C2(C)C` (centres undefined): the GI50 in [3], in [4], in [7], in [8], in test [9] and in test [10] was > 100 µM (inactive) each time. The GI50 in [11], in test [12], in test [13] and in test [15] was > 100 µM (inactive) throughout.
As for `CSc1ccc2c(cc1=O)C(NC(=O)c1cc(O)c(OC(=O)O)c(O)c1)CCc1cc(O)c(O)c(O)c1-2` (centres undefined), the GI50 is 14 µM (inactive) in test [1]; 36.1 µM (inactive) in test [16]; 20 µM (inactive) in test [2]; 17.4 µM (inactive) in test [3]; 35 µM (inactive) in test [4]; 15.7 µM (inactive) in test [5]. Further, the GI50 in test [6] is 25.9 µM (inactive); in test [17] it was 50.9 µM (inactive); in test [7], 20.7 µM (inactive); in [8], 16.7 µM (inactive); in test [9] it was 18.2 µM (inactive); in [10] it was > 8.99 µM (inactive). The GI50 in test [11] is 34 µM (inactive); in test [12], 11.9 µM (inactive); in [13], > 89.9 µM (inactive); in [15] it was 15.3 µM (inactive).
Regarding `O=C(O)c1oc2ccc([N+](=O)[O-])c3c2c1CCC3`, the GI50 is > 100 µM (inactive) in [1]; > 100 µM (inactive) in test [2]; > 100 µM (inactive) in test [3]; 54.1 µM (inactive) in test [4]; > 100 µM (inactive) in test [6]; > 100 µM (inactive) in test [17]. For the same compound, the GI50 in test [7] was > 100 µM (inactive); in test [9], > 100 µM (inactive); in [10], > 100 µM (inactive); in test [11] it was 98.9 µM (inactive); in [13], > 100 µM (inactive); in test [15], > 100 µM (inactive).
Regarding `O=C(CC(=O)N1N=C(N2c3ccccc3Sc3ccccc32)CC1c1ccccc1)Nc1ccc(Cl)cc1` (centres undefined), the GI50 in test [1], in test [16], in [2], in test [3], in test [4] and in [5] was > 100 µM (inactive) each time. The GI50 in [6], in test [17], in test [7], in [9], in test [10] and in test [11] was > 100 µM (inactive) in each case. Moreover, the GI50 in test [12] is > 10 µM (inactive); in test [13], > 100 µM (inactive); in [15], > 100 µM (inactive).
With `COC(=O)C1(C(C)C)CCc2c(OC)ccc(OC)c2C1=O` (centres undefined), the GI50 in test [1] was > 100 µM (inactive); in test [16], > 100 µM (inactive); in test [2], 75.2 µM (inactive); in test [3], > 100 µM (inactive); in test [4], > 100 µM (inactive); in test [5], > 100 µM (inactive). Besides, the GI50 in test [17] was > 100 µM (inactive); in test [7] it was > 100 µM (inactive); in test [8], 74.3 µM (inactive); in test [9], > 100 µM (inactive); in [10], > 100 µM (inactive); in test [11] it was > 100 µM (inactive). Besides, the GI50 in test [12], in [13] and in [15] was > 100 µM (inactive) in each case.
For `O=C1OC(c2ccccc2)=N/C1=C/NC(Cc1ccc(O)cc1)C(=O)O` (centres undefined), the GI50 in test [1], in test [16], in [2], in test [3], in test [4] and in [5] was > 100 µM (inactive) each time. Further, the GI50 in [6], in test [17], in test [7], in test [9], in test [10] and in [11] was > 100 µM (inactive) throughout. The GI50 in test [12], in test [13] and in test [15] was > 100 µM (inactive) each time.
